In patent publication US20240174611A1 (Rappta Therapeutics Oy, priority 2021, published 2024):

Legend:
[1] = test system: HCC1937 cells; assay: HCC1937 cell viability assay (MTS); type: cell-based; conditions: Homo sapiens, HCC1937 cell line (footnote a), 48 hours treatment
Procedure: HCC1937 cell line HCC1937 cells are plated in a 96 well plate format at a density of 10,000 cells per well. After incubation overnight, cells are treated with compounds 1-100 at following concentrations: 80, 40, 20, 10, 5, 2.5, 1.25 μM. Compound concentrations are prepared in RPMI via serial dilutions from a starting stock of 80 mM. 48 hours after compound treatment, cell viability is assessed using the Promega CellTiter 96 aqueous one proliferation assay (Promega G3582, MTS assay) according to manufacturer's protocol.
(§1) The cell viability data was analyzed with GraphPad Prism software. The values were log transformed and analyzed with non-linear regression (curve-fit) using log(inhibitor) vs. response—variable slope (four parameters) and constraining the bottom to equal zero. Unless otherwise indicated, the GI50 values provided in Table 35 correspond to the LNCaP cell viability assays.

[2] = test system: LNCaP cells; assay: LNCaP cell viability assay (MTS); type: cell-based; conditions: Homo sapiens, LNCaP, 48 h, LNCaP cell line, 48 hours treatment
Procedure: LNCaP cell line was used for the cell viability assay. LNCaP cells were plated in 96-well plates at a density of 5000 cells per well. After 24 hours of plating, the cells were treated with increasing doses of compound 1-100 ranging from 1 μM to 80 μM. Relative cell numbers were analyzed after 48 hours using 3-(4,5-dimethylthiazol-2-yl)-5-(3-carboxymethoxyphenyl)-2-(4-sulfophenyl)-2H-tetrazolium (MTS) assay (Promega) according to the manufacturer's instructions.
as §1

| Compound | GI50 [1] [µM] | GI50 [2] [µM] |
| --- | --- | --- |
| O=S(=O)(NC1(c2ccc(F)cn2)CCNCC1)c1ccc(OC(F)(F)F)cc1 [Compound 65, N-(4-(5-fluoropyridin-2-yl)piperidin-4-yl)-4-(trifluoromethoxy)benzenesulfonamide] | 75.1 | – |
| CC(C)CCN1CCC(NS(=O)(=O)c2ccc(OC(F)(F)F)cc2)(c2ccc(Cl)cc2)C1 (centres unmarked) [Compound 76, N-(3-(4-chlorophenyl)-1-isopentylpyrrolidin-3-yl)-4-(trifluoromethoxy)benzenesulfonamide] | 19.9 | – |
| N=S(=O)(NC1(c2ccc(F)cc2)CCNC1)c1ccc(OC(F)(F)F)cc1 (centres unmarked) [Compound 84, N-(3-(4-fluorophenyl)pyrrolidin-3-yl)-4-(trifluoromethoxy)benzenesulfonimidamide] | 75.1 | – |
| O=S(=O)(NC1(c2ccccc2)CCCNC1)c1ccc(OC(F)(F)F)cc1 (centres unmarked) [Compound 90, N-(3-phenylpiperidin-3-yl)-4-(trifluoromethoxy)benzenesulfonamide] | – | 48.9 |
| Nc1cc(S(=O)(=O)NC2(c3ccc(F)cc3)CCNC2)ccc1OC(F)(F)F (centres unmarked) [Compound 92, 3-amino-N-(3-(4-fluorophenyl)pyrrolidin-3-yl)-4-(trifluoromethoxy)benzenesulfonamide] | 50.3 | – |
| Cc1cc(C2(NS(=O)(=O)c3ccc(OC(F)(F)F)c(N)c3)CCNC2)ccc1F (centres unmarked) [Compound 93, 3-amino-N-(3-(4-fluoro-3-methylphenyl)pyrrolidin-3-yl)-4-(trifluoromethoxy)benzenesulfonamide] | – | 65.5 |
| O=S(=O)(NC1(c2ncc(Cl)cc2F)CCNCC1)c1ccc(OC(F)(F)F)cc1 [Compound 95, N-(4-(5-chloro-3-fluoropyridin-2-yl)piperidin-4-yl)-4-(trifluoromethoxy)benzenesulfonamide] | – | 45.8 |
| O=S(=O)(NC1(c2ccc(Cl)cc2)CCNCC1)C12CC(C(F)(F)F)(C1)C2 [Compound 98, N-(4-(4-chlorophenyl)piperidin-4-yl)-3-(trifluoromethyl)bicyclo[1.1.1]pentane-1-sulfonamide] | – | 46.6 |
| Nc1cc(S(=O)(=O)NC2(c3ccc(Cl)cc3)CCNCC2)ccc1OC(F)(F)F [Compound 99, 3-amino-N-(4-(4-chlorophenyl)piperidin-4-yl)-4-(trifluoromethoxy)benzenesulfonamide] | – | 46.1 |

The remaining compounds from weak to strong by GI50 [2], led by results:

| GI50 [1] [µM] | GI50 [2] [µM] | Compound |
| --- | --- | --- |
| – | 22.3 | O=S(=O)(NC1(c2ccc(C(F)F)cc2)CCNCC1)c1ccc(OC(F)(F)F)cc1 [Compound 100, N-(4-(4-(difluoromethyl)phenyl)piperidin-4-yl)-4-(trifluoromethoxy)benzenesulfonamide] |
| – | 15.8 | O=S(=O)(NC1(c2ccc(Cl)cc2F)CCNCC1)c1ccc(OC(F)(F)F)cc1 [Compound 94, N-(4-(4-chloro-2-fluorophenyl)piperidin-4-yl)-4-(trifluoromethoxy)benzenesulfonamide] |
| – | 13.7 | NS(=O)(=NC1(c2ccc(Cl)cc2)CCNCC1)c1ccc(OC(F)(F)F)cc1 (centres unmarked) [Compound 96, N′-(4-(4-chlorophenyl)piperidin-4-yl)-4-(trifluoromethoxy)benzenesulfonimidamide] |
| – | 11.6 | O=S(=O)(NC1(c2ccc(Cl)cc2)CCNCC1)c1ccc(C(F)(F)F)cc1 [Compound 97, N-(4-(4-chlorophenyl)piperidin-4-yl)-4-(trifluoromethyl)benzenesulfonamide] |
| – | 9.6 | O=S(=O)(NC1(c2ccc(Cl)s2)CCNCC1)c1ccc(OC(F)(F)F)cc1 [Compound 91, N-(4-(5-chlorothiophen-2-yl)piperidin-4-yl)-4-(trifluoromethoxy)benzenesulfonamide] |
